Columns and labels:
Type in all cases: cell-based
[1] = test system: Escherichia coli IFO 12734; experiment: Antibiotic-potentiating activity, paper disc growth inhibition zone, Escherichia coli IFO 12734
Experimental: The potency of the compound of the formula (II) can be determined, for instance, by the cup method or paper disc method using bouillon agar containing 0.05 μg/ml of cefmenoxime with Escherichia coli IFO 12734 as the test organism. […]
(§1) *The test was performed using a bouillon agar medium containing the
antibiotic as specified and a paper disc, 8 mm in diameter.
**A paper disc, 8 mm in diameter, was impregnated with 25 μl of the […]

[2] = test system: Proteus mirabilis ATCC 21100; experiment: Antibiotic-potentiating activity, paper disc growth inhibition zone, Proteus mirabilis ATCC 21100
Experimental: as §1
antibiotic as specified and a paper disc, 8 mm in diameter. […]
*The test was performed under the same conditions as noted for Table 1
except for the test organism and the concentration of each coexisting

[3] = test system: Escherichia coli IFO 12734; experiment: Inhibition of growth of Escherichia coli in liquid culture (absorbance at 600 nm); details: for Absorbance at 600 nm: 37° C., 2 hours
Experimental: Table 5: Inhibition of growth of Escherichia coli IFO 12734 in the copresence of F2 (obtained in Example 1) and cephalexin or cefmenoxime.
(§2) To 8 ml of YAB medium (1.75% Difco antibiotic medium No. 3, 0.5% Difco yeast extract) containing 12% (w/v) of sucrose, there were added 1 ml of water, 50 μg/ml cephalexin solution or 10 μg/ml cefmenoxime solution, and the medium was inoculated with 1 ml of a preculture in YAB medium at an early logarithmic growth phase and incubated with shaking at 37° C. for 2 hours. Thereafter, the absorbance of the culture broth was measured at 600 nm using a Shimadzu-Bausch & Lomb Spectronic 20 colorimeter.

[4] = test system: Escherichia coli; experiment: Observation of the culture broths under a phase contrast microscope; details: in the presence of cephalexin or cefmenoxime
Experimental: as §2

[5] = test system: Escherichia coli IFO 12734; experiment: Inhibition of growth of Escherichia coli in liquid culture (absorbance at 600 nm); details: 37° C., 2 hours
[6] = F2 of Example 1, 1 μg/ml in test solution, no addition
[7] = F2 of Example 1, 5 μg/ml in test solution, no addition
[8] = F2 of Example 1, 25 μg/ml in test solution, no addition
[9] = F2 of Example 1, 125 μg/ml in test solution, no addition
[10] = F2 of Example 1, 1000 μg/ml in test solution, no addition
[11] = F2 of Example 3, 1 μg/ml in test solution, no addition
[12] = F2 of Example 3, 5 μg/ml in test solution, no addition
[13] = F2 of Example 3, 25 μg/ml in test solution, no addition
[14] = F2 of Example 3, 125 μg/ml in test solution, no addition
[15] = F2 of Example 3, 1000 μg/ml in test solution, no addition

With `CC(=O)NC1C(OC2CC(C(=O)NCCS(=O)(=O)O)NC2CO)OC(CO)C(OS(=O)(=O)O)C1O` (stereo not drawn) [F2] the “Diameter of growth inhibition zone” value ([1]; F2 of Example 1, 1 μg/ml in test solution, 0.03 μg/ml mecillinam) was < 8 mm, the “Diameter of growth inhibition zone” value ([1]; F2 of Example 1, 1 μg/ml in test solution, 0.05 μg/ml cefmenoxime) was 10 mm and the “Diameter of growth inhibition zone” value [1, 6] was < 8 mm. The “Diameter of growth inhibition zone” value ([1]; F2 of Example 1, 5 μg/ml in test solution, 0.03 μg/ml mecillinam) was 10 mm, the “Diameter of growth inhibition zone” value ([1]; F2 of Example 1, 5 μg/ml in test solution, 0.05 μg/ml cefmenoxime) was 15 mm and the “Diameter of growth inhibition zone” value [1, 7] was < 8 mm. The “Diameter of growth inhibition zone” value ([1]; F2 of Example 1, 25 μg/ml in test solution, 0.03 μg/ml mecillinam) was 18 mm, the “Diameter of growth inhibition zone” value ([1]; F2 of Example 1, 25 μg/ml in test solution, 0.05 μg/ml cefmenoxime) was 24 mm and the “Diameter of growth inhibition zone” value [1, 8] was < 8 mm. The “Diameter of growth inhibition zone” value ([1]; F2 of Example 1, 125 μg/ml in test solution, 0.03 μg/ml mecillinam) was 24 mm, the “Diameter of growth inhibition zone” value ([1]; F2 of Example 1, 125 μg/ml in test solution, 0.05 μg/ml cefmenoxime) was 32 mm and the “Diameter of growth inhibition zone” value [1, 9] was < 8 mm. For the same compound, the “Diameter of growth inhibition zone” value ([1]; F2 of Example 1, 1000 μg/ml in test solution, 0.03 μg/ml mecillinam) was 30 mm, the “Diameter of growth inhibition zone” value ([1]; F2 of Example 1, 1000 μg/ml in test solution, 0.05 μg/ml cefmenoxime) was 40 mm and the “Diameter of growth inhibition zone” value [1, 10] was < 8 mm. The “Diameter of growth inhibition zone” value ([1]; F2 of Example 3, 1 μg/ml in test solution, 0.03 μg/ml mecillinam) was < 8 mm, the “Diameter of growth inhibition zone” value ([1]; F2 of Example 3, 1 μg/ml in test solution, 0.05 μg/ml cefmenoxime) was 9 mm and the “Diameter of growth inhibition zone” value [1, 11] was < 8 mm. For the same compound, the “Diameter of growth inhibition zone” value ([1]; F2 of Example 3, 5 μg/ml in test solution, 0.03 μg/ml mecillinam) was 9 mm, the “Diameter of growth inhibition zone” value ([1]; F2 of Example 3, 5 μg/ml in test solution, 0.05 μg/ml cefmenoxime) was 14 mm and the “Diameter of growth inhibition zone” value [1, 12] was < 8 mm. The “Diameter of growth inhibition zone” value ([1]; F2 of Example 3, 25 μg/ml in test solution, 0.03 μg/ml mecillinam) was 19 mm, the “Diameter of growth inhibition zone” value ([1]; F2 of Example 3, 25 μg/ml in test solution, 0.05 μg/ml cefmenoxime) was 23 mm and the “Diameter of growth inhibition zone” value [1, 13] was < 8 mm. The “Diameter of growth inhibition zone” value ([1]; F2 of Example 3, 125 μg/ml in test solution, 0.03 μg/ml mecillinam) was 23 mm, the “Diameter of growth inhibition zone” value ([1]; F2 of Example 3, 125 μg/ml in test solution, 0.05 μg/ml cefmenoxime) was 31 mm and the “Diameter of growth inhibition zone” value [1, 14] was < 8 mm. For the same compound, the “Diameter of growth inhibition zone” value ([1]; F2 of Example 3, 1000 μg/ml in test solution, 0.03 μg/ml mecillinam) was 29 mm, the “Diameter of growth inhibition zone” value ([1]; F2 of Example 3, 1000 μg/ml in test solution, 0.05 μg/ml cefmenoxime) was 39 mm and the “Diameter of growth inhibition zone” value [1, 15] was < 8 mm. The “Diameter of growth inhibition zone” value ([2]; F2 of Example 1, 1 μg/ml in test solution, 0.01 μg/ml cefmenoxime) was 9 mm, the “Diameter of growth inhibition zone” value ([2]; F2 of Example 1, 1 μg/ml in test solution, 0.05 μg/ml mecillinam) was 9 mm and the “Diameter of growth inhibition zone” value [2, 6] was < 8 mm. For the same compound, the “Diameter of growth inhibition zone” value ([2]; F2 of Example 1, 5 μg/ml in test solution, 0.01 μg/ml cefmenoxime) was 13 mm, the “Diameter of growth inhibition zone” value ([2]; F2 of Example 1, 5 μg/ml in test solution, 0.05 μg/ml mecillinam) was 11 mm and the “Diameter of growth inhibition zone” value [2, 7] was < 8 mm. The “Diameter of growth inhibition zone” value ([2]; F2 of Example 1, 25 μg/ml in test solution, 0.01 μg/ml cefmenoxime) was 23 mm, the “Diameter of growth inhibition zone” value ([2]; F2 of Example 1, 25 μg/ml in test solution, 0.05 μg/ml mecillinam) was 19 mm and the “Diameter of growth inhibition zone” value [2, 8] was < 8 mm. The “Diameter of growth inhibition zone” value ([2]; F2 of Example 1, 125 μg/ml in test solution, 0.01 μg/ml cefmenoxime) was 30 mm, the “Diameter of growth inhibition zone” value ([2]; F2 of Example 1, 125 μg/ml in test solution, 0.05 μg/ml mecillinam) was 26 mm and the “Diameter of growth inhibition zone” value [2, 9] was < 8 mm. For the same compound, the “Diameter of growth inhibition zone” value ([2]; F2 of Example 1, 1000 μg/ml in test solution, 0.01 μg/ml cefmenoxime) was 38 mm, the “Diameter of growth inhibition zone” value ([2]; F2 of Example 1, 1000 μg/ml in test solution, 0.05 μg/ml mecillinam) was 32 mm and the “Diameter of growth inhibition zone” value [2, 10] was < 8 mm. The “Diameter of growth inhibition zone” value ([2]; F2 of Example 3, 1 μg/ml in test solution, 0.01 μg/ml cefmenoxime) was 9 mm, the “Diameter of growth inhibition zone” value ([2]; F2 of Example 3, 1 μg/ml in test solution, 0.05 μg/ml mecillinam) was 9 mm and the “Diameter of growth inhibition zone” value [2, 11] was < 8 mm. For the same compound, the “Diameter of growth inhibition zone” value ([2]; F2 of Example 3, 5 μg/ml in test solution, 0.01 μg/ml cefmenoxime) was 12 mm, the “Diameter of growth inhibition zone” value ([2]; F2 of Example 3, 5 μg/ml in test solution, 0.05 μg/ml mecillinam) was 12 mm and the “Diameter of growth inhibition zone” value [2, 12] was < 8 mm. The “Diameter of growth inhibition zone” value ([2]; F2 of Example 3, 25 μg/ml in test solution, 0.01 μg/ml cefmenoxime) was 22 mm, the “Diameter of growth inhibition zone” value ([2]; F2 of Example 3, 25 μg/ml in test solution, 0.05 μg/ml mecillinam) was 19 mm and the “Diameter of growth inhibition zone” value [2, 13] was < 8 mm. The “Diameter of growth inhibition zone” value ([2]; F2 of Example 3, 125 μg/ml in test solution, 0.01 μg/ml cefmenoxime) was 29 mm, the “Diameter of growth inhibition zone” value ([2]; F2 of Example 3, 125 μg/ml in test solution, 0.05 μg/ml mecillinam) was 25 mm and the “Diameter of growth inhibition zone” value [2, 14] was < 8 mm. The “Diameter of growth inhibition zone” value ([2]; F2 of Example 3, 1000 μg/ml in test solution, 0.01 μg/ml cefmenoxime) was 38 mm, the “Diameter of growth inhibition zone” value ([2]; F2 of Example 3, 1000 μg/ml in test solution, 0.05 μg/ml mecillinam) was 32 mm and the “Diameter of growth inhibition zone” value [2, 15] was < 8 mm. The “Absorbance at 600 nm” value ([3]; final F2 (Example 1) 1 μg/ml, 1 μg/ml cefmenoxime) was 0.60, the “Absorbance at 600 nm” value ([3]; final F2 (Example 1) 1 μg/ml, 5 μg/ml cephalexin) was 1.80 and the “Absorbance at 600 nm” value ([3]; final F2 (Example 1) 1 μg/ml, no addition) was 2.65. The “Absorbance at 600 nm” value ([3]; final F2 (Example 1) 10 μg/ml, no addition) was 2.65, the “Inhibition of growth of Escherichia coli” value ([3]; in the presence of cephalexin or cefmenoxime, decrease in absorbance) was “inhibits the growth of Escherichia coli” and the “Swelling and bacteriolysis under phase contrast microscope” value [4] was “partial swelling occurred and bacteriolysis proceeded”. The “Elongation of cells under phase contrast microscope” value ([4]; in dependence on the addition level) was “elongation was inhibited”, the “Absorbance at 600 nm” value ([5]; final F2 (Example 1) 10 μg/ml, 1 μg/ml cefmenoxime) was 0.25 and the “Absorbance at 600 nm” value ([5]; final F2 (Example 1) 10 μg/ml, 5 μg/ml cephalexin) was 1.00. For the same compound, the “Absorbance at 600 nm” value ([5]; final F2 (Example 1) 100 μg/ml, 1 μg/ml cefmenoxime) was 0.30, the “Absorbance at 600 nm” value ([5]; final F2 (Example 1) 100 μg/ml, 5 μg/ml cephalexin) was 0.95 and the “Absorbance at 600 nm” value ([5]; final F2 (Example 1) 100 μg/ml, no addition) was 2.70. The “Absorbance at 600 nm” value ([5]; final F2 (Example 3) 1 μg/ml, 1 μg/ml cefmenoxime) was 0.55, the “Absorbance at 600 nm” value ([5]; final F2 (Example 3) 1 μg/ml, 5 μg/ml cephalexin) was 1.75 and the “Absorbance at 600 nm” value ([5]; final F2 (Example 3) 1 μg/ml, no addition) was 2.45. For the same compound, the “Absorbance at 600 nm” value ([5]; final F2 (Example 3) 10 μg/ml, 1 μg/ml cefmenoxime) was 0.25, the “Absorbance at 600 nm” value ([5]; final F2 (Example 3) 10 μg/ml, 5 μg/ml cephalexin) was 1.90 and the “Absorbance at 600 nm” value ([5]; final F2 (Example 3) 10 μg/ml, no addition) was 2.50. For the same compound, the “Absorbance at 600 nm” value ([5]; final F2 (Example 3) 100 μg/ml, 1 μg/ml cefmenoxime) was 0.25, the “Absorbance at 600 nm” value ([5]; final F2 (Example 3) 100 μg/ml, 5 μg/ml cephalexin) was 0.75 and the “Absorbance at 600 nm” value ([5]; final F2 (Example 3) 100 μg/ml, no addition) was 2.55.

— US4504655A, “Substances potentiating the activity of antibiotics and their production” (Takeda Chemical Industries, Ltd., priority 1981, dated 1985)
